Results on four compounds are retold here after ChEMBL document CHEMBL1146831, “Binding of a homologous series of anthraquinones to DNA” (Bioorg Med Chem Lett, 2004).

In assay [1] the test system is Nucleic Acid. Nature of the assay: Binding constant towards AT-rich calf thymus DNA hairpin. The class given is nucleic-acid assay. Conditions: Bos taurus.
The subject of assay [2] is Nucleic Acid. In words: Binding constant towards GC-rich calf thymus DNA hairpin. The class given is nucleic-acid assay. Conditions: Bos taurus.

With `COCCOCCOCCOCCCNCCC(=O)Nc1ccc2c(c1)C(=O)c1ccc(NC(=O)CCNCCCOCCOCCOCCOC)cc1C2=O`, the K with Nucleic Acid [1] came out at 190000 M⁻¹; with Nucleic Acid [2], 90000 M⁻¹.
Regarding `COCCOCCCNCCC(=O)Nc1ccc2c(c1)C(=O)c1ccc(NC(=O)CCNCCCOCCOC)cc1C2=O`, the K in the assay on Nucleic Acid [1] amounted to 550000 M⁻¹; in the assay on Nucleic Acid [2], 220000 M⁻¹.
Turning to `COCCCNCCC(=O)Nc1ccc2c(c1)C(=O)c1ccc(NC(=O)CCNCCCOC)cc1C2=O`, the figures for the K in the assay on Nucleic Acid [1] and with Nucleic Acid [2] were 760000 M⁻¹ and 310000 M⁻¹, respectively.
As to `COCCOCCOCCCNCCC(=O)Nc1ccc2c(c1)C(=O)c1ccc(NC(=O)CCNCCCOCCOCCOC)cc1C2=O`, the values for the K in the assay on Nucleic Acid [1] and in the assay on Nucleic Acid [2] were 250000 M⁻¹ and 110000 M⁻¹, respectively.
